Test results from publication PMC3632306 (Journal of medicinal chemistry, 2013).
“Also recorded” adds a separate entry of the source.

Tests used:
U87-MG cells = experiment: U87-MG cell viability; format: cell-based, human; conditions: concentrations up to 10 μM, relative to DMSO, 10% FBS
[1] = test system: U87-MG glioblastoma cells; experiment: Invasive migration in U87-MG cells; format: cell-based, human; conditions: for Invasive migration in U87-MG cells: 100 nM to 10 μM, 48 hours
in vivo = conditions: mouse, ip, 10 mg/kg
PLD1 = target: T1, PLD1 (Homo sapiens, UniProt Q13393)
T1 sequence (Q13393 1-1074): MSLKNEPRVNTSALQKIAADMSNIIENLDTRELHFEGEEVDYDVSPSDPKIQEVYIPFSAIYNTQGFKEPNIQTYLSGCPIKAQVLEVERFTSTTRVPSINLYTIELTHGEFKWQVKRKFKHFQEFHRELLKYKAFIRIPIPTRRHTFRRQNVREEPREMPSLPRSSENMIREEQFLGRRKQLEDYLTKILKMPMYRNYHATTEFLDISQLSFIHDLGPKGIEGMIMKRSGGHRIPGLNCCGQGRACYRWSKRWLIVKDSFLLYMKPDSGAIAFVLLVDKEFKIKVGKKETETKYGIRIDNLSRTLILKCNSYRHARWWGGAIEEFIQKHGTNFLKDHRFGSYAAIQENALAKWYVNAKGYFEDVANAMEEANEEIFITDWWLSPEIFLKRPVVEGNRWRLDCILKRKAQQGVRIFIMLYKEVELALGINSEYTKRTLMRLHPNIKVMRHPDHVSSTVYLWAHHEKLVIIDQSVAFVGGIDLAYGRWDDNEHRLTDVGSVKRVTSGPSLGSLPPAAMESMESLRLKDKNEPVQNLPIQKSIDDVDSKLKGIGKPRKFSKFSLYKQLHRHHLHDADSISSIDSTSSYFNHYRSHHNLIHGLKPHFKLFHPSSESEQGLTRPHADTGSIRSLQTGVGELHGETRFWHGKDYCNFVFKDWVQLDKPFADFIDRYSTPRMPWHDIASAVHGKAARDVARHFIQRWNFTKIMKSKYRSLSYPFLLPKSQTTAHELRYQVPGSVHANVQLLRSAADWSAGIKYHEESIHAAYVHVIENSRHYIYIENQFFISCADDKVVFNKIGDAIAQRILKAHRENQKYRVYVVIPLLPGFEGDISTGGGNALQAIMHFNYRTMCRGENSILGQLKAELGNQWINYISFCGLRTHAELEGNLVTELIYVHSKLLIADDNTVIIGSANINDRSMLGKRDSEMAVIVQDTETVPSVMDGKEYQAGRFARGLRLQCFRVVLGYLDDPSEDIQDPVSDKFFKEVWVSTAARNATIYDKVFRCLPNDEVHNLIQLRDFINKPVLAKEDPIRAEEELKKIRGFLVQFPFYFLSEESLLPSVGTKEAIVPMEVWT

[2] = not given; remark: listed apart in the source
PLD2 = PLD2 (Homo sapiens, UniProt O14939); conditions: purified PLD proteins; data comparable to cell-based assay
Chain of PLD2 (O14939 whole entry, species assumed): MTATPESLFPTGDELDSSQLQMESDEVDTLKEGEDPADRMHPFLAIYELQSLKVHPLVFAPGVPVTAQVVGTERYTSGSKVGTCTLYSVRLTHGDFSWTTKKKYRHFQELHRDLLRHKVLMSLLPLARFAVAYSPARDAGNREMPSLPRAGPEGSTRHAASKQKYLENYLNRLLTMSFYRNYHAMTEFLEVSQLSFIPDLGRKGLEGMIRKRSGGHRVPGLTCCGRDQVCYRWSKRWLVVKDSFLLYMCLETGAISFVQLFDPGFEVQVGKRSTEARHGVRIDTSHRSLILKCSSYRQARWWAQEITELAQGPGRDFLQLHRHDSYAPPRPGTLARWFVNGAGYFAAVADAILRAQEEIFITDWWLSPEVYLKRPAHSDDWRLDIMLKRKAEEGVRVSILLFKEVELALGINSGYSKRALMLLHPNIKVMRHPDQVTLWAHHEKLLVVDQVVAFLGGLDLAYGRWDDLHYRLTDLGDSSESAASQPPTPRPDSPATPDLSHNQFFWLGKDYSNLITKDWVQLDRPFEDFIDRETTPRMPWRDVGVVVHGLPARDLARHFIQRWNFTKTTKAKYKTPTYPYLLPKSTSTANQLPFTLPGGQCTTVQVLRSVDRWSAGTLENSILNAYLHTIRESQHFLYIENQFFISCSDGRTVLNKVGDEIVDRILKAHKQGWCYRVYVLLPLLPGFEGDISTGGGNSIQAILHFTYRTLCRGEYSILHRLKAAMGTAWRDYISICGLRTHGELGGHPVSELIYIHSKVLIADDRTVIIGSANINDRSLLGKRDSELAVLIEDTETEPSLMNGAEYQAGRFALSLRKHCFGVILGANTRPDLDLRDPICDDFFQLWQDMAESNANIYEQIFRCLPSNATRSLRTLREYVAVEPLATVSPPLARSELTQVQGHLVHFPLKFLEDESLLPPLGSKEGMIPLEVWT

Row | Compound | Effect on U87-MG cell viability (U87-MG cells) | Invasive migration in U87-MG cells [1] | AUC at 6 h (in vivo) [µM·h] | Human CLHEP [mL/min/kg] | Concentration up to which PLD1 is not inhibited (PLD1) [µM] | PLD1 inhibition (PLD1) | Rat CLHEP [2] [mL/min/kg] | Dose at which decrease in invasive migration reached statistical significance ([1]; U87-MG cells) [µM] | Direct action on PLD2 in biochemical assay (PLD2)
1 | Cc1cccc(N2CNC(=O)C23CCN(C[C@H](C)NC(=O)c2ccc(Br)cc2)CC3)c1 [ML299] | no effect | dose-dependent decrease; also recorded: decreased invasive migration | – | – | – | – | – | – | –
2 | O=C(NCCN1CCC2(CC1)C(=O)NCN2c1cccc(F)c1)c1ccc(F)c(F)c1 [ML298, 3,4-Difluoro-N-(2-(1-(3-fluorophenyl)-4-oxo-1,3,8-triazaspiro[4.5]decan-8yl)ethyl)benzamide] | no effect | dose-dependent decrease; also recorded: decreased invasive migration | 1.55 | 17.8 | > 20 | no inhibition of PLD1 | 60.9 | 10 | acted directly on PLD2
